Data from patent publication US9409884B2 (Rigel Pharmaceuticals, Inc., priority 2012, dated 2016).
pEC50: −log10 of the molar value.

Biological target: AMPK
Assay: AMPK activation, enzyme-linked immunosorbent assay
Assay type: biochemical
Settings: Table 8, compounds of Table 1
Summary of the method: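 AMPK activation by test compounds was measured by enzyme-linked immunosorbent assay.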

Compound	pEC50
CN(C(=O)c1cc2cc(OC3CCN(c4ccc(C(F)(F)F)cc4)CC3)ccc2o1)C1CCN(C(=O)c2ccncc2)CC1 [Compound 1-118, N-(1-isonicotinoylpiperidin-4-yl)-N-methyl-5-(1-(4-(trifluoromethyl)phenyl)piperidin-4-yloxy)benzofuran-2-carboxamide]	6.30 to 7.00
CN(C(=O)c1cc2cc(OC3CCN(c4ccc(C(F)(F)F)cc4)CC3)ccc2o1)C1CCN(Cc2ccc(C(F)(F)F)cc2)CC1 [Compound 1-119, N-methyl-N-(1-(4-(trifluoromethyl)benzyl)piperidin-4-yl)-5-(1-(4-(trifluoromethyl)phenyl)piperidin-4-yloxy)benzofuran-2-carboxamide]	> 7.00
CC(C)(C)OC(=O)N1CC[C@@H](NC(=O)c2cc3cc(OC4CCN(c5ccc(C(F)(F)F)cc5)CC4)ccc3o2)C1 [Compound 1-120, (R)-tert-butyl 3-(5-(1-(4-(trifluoromethyl)phenyl)piperidin-4-yloxy)benzofuran-2-carboxamido) pyrrolidine-1-carboxylate]	5.30 to 6.00
O=C(N[C@@H]1CCNC1)c1cc2cc(OC3CCN(c4ccc(C(F)(F)F)cc4)CC3)ccc2o1 [Compound 1-121, (R)-N-(pyrrolidin-3-yl)-5-(1-(4-(trifluoromethyl)phenyl)piperidin-4-yloxy)benzofuran-2-carboxamide]	< 5.00
O=C(N[C@@H]1CCN(Cc2ccncc2)C1)c1cc2cc(OC3CCN(c4ccc(C(F)(F)F)cc4)CC3)ccc2o1 [Compound 1-122, (R)-N-(1-(pyridin-4-ylmethyl)pyrrolidin-3-yl)-5-(1-(4-(trifluoromethyl)phenyl)piperidin-4-yloxy)benzofuran-2-carboxamide]	6.30 to 7.00
O=C(N[C@@H]1CCN(Cc2cccnc2)C1)c1cc2cc(OC3CCN(c4ccc(C(F)(F)F)cc4)CC3)ccc2o1 [Compound 1-123, (R)-N-(1-(pyridin-3-ylmethyl)pyrrolidin-3-yl)-5-(1-(4-(trifluoromethyl)phenyl)piperidin-4-yloxy)benzofuran-2-carboxamide]	6.30 to 7.00
O=C(N[C@@H]1CCN(Cc2ccccn2)C1)c1cc2cc(OC3CCN(c4ccc(C(F)(F)F)cc4)CC3)ccc2o1 [Compound 1-124, (R)-N-(1-(pyridin-2-ylmethyl)pyrrolidin-3-yl)-5-(1-(4-(trifluoromethyl)phenyl)piperidin-4-yloxy)benzofuran-2-carboxamide]	5.30 to 6.00
O=C(N[C@@H]1CCN(C(=O)c2ccncc2)C1)c1cc2cc(OC3CCN(c4ccc(C(F)(F)F)cc4)CC3)ccc2o1 [Compound 1-125, (R)-N-(1-isonicotinoylpyrrolidin-3-yl)-5-(1-(4-(trifluoromethyl)phenyl)piperidin-4-yloxy)benzofuran-2-carboxamide]	5.30 to 6.00
O=C(N[C@@H]1CCN(S(=O)(=O)c2cccnc2)C1)c1cc2cc(OC3CCN(c4ccc(C(F)(F)F)cc4)CC3)ccc2o1 [Compound 1-126, (R)-N-(1-(pyridin-3-ylsulfonyl)pyrrolidin-3-yl)-5-(1-(4-(trifluoromethyl)phenyl)piperidin-4-yloxy)benzofuran-2-carboxamide]	5.30 to 6.00
CC(C)(C)OC(=O)N1CC[C@H](NC(=O)c2cc3cc(OC4CCN(Cc5ccc(Cl)cc5)CC4)ccc3o2)C1 [Compound 1-127, (S)-tert-butyl 3-(5-(1-(4-chlorobenzyl)piperidin-4-yloxy)benzofuran-2-carboxamido) pyrrolidine-1-carboxylate]	5.30 to 6.00
O=C(N[C@H]1CCNC1)c1cc2cc(OC3CCN(Cc4ccc(Cl)cc4)CC3)ccc2o1 [Compound 1-128, (S)-5-(1-(4-chlorobenzyl)piperidin-4-yloxy)-N-(pyrrolidin-3-yl)benzofuran-2-carboxamide]	< 5.00
O=C(N[C@H]1CCN(Cc2ccncc2)C1)c1cc2cc(OC3CCN(Cc4ccc(Cl)cc4)CC3)ccc2o1 [Compound 1-129, (S)-5-(1-(4-chlorobenzyl)piperidin-4-yloxy)-N-(1-(pyridin-4-ylmethyl)pyrrolidin-3-yl)benzofuran-2-carboxamide]	5.30 to 6.00
O=C(N[C@H]1CCN(Cc2cccnc2)C1)c1cc2cc(OC3CCN(Cc4ccc(Cl)cc4)CC3)ccc2o1 [Compound 1-130, (S)-5-(1-(4-chlorobenzyl)piperidin-4-yloxy)-N-(1-(pyridin-3-ylmethyl)pyrrolidin-3-yl)benzofuran-2-carboxamide]	5.30 to 6.00
NC(=O)c1ccc(CN2CCC(Oc3ccc4oc(C(=O)NC5CCN(Cc6ccncc6)CC5)cc4c3)CC2)cc1 [Compound 1-131, 5-(1-(4-carbamoylbenzyl)piperidin-4-yloxy)-N-(1-(pyridin-4-ylmethyl)piperidin-4-yl)benzofuran-2-carboxamide]	5.30 to 6.00
O=C(NC1CCN(Cc2ccncc2)CC1)c1cc2cc(OC3CCN(c4ccc(OC(F)(F)F)cc4)CC3)ccc2s1 [Compound 1-137, N-(1-(pyridin-4-ylmethyl)piperidin-4-yl)-5-(1-(4-(trifluoromethoxy)phenyl)piperidin-4-yloxy)benzo [b]thiophene-2-carboxamide]	> 7.00
O=C(NC1CCN(Cc2ccncc2)CC1)c1cc2cc(OC3CCN(c4ccc(C(F)(F)F)cc4)CC3)ccc2s1 [Compound 1-138, N-(1-(pyridin-4-ylmethyl)piperidin-4-yl)-5-(1-(4-(trifluoromethyl)phenyl)piperidin-4-yloxy)benzo [b]thiophene-2-carboxamide]	> 7.00
CC(C)(C)OC(=O)N1CCC(NC(=O)c2cc3ccc(OC4CCN(c5ccc(C(F)(F)F)cc5)CC4)cc3s2)CC1 [Compound 1-140, tert-butyl 4-(6-(1-(4-(trifluoromethyl)phenyl)piperidin-4-yloxy)benzo[b]thiophene-2-carboxamido) piperidine-1-carboxylate]	6.00 to 6.30
O=C(NC1CCNCC1)c1cc2ccc(OC3CCN(c4ccc(C(F)(F)F)cc4)CC3)cc2s1 [Compound 1-141, N-(piperidin-4-yl)-6-(1-(4-(trifluoromethyl)phenyl)piperidin-4-yloxy)benzo[b] thiophene-2-carboxamide]	6.30 to 7.00
N#Cc1ccc(CN2CCC(NC(=O)c3cc4ccc(OC5CCN(c6ccc(C(F)(F)F)cc6)CC5)cc4s3)CC2)cc1 [Compound 1-144, N-(1-(4-cyanobenzyl)piperidin-4-yl)-6-(1-(4-(trifluoromethyl)phenyl)piperidin-4-yloxy)benzo [b]thiophene-2-carboxamide]	> 7.00
N#Cc1cccc(CN2CCC(NC(=O)c3cc4ccc(OC5CCN(c6ccc(C(F)(F)F)cc6)CC5)cc4s3)CC2)c1 [Compound 1-145, N-(1-(3-cyanobenzyl)piperidin-4-yl)-6-(1-(4-(trifluoromethyl)phenyl)piperidin-4-yloxy)benzo [b]thiophene-2-carboxamide]	6.30 to 7.00
N#Cc1ccccc1CN1CCC(NC(=O)c2cc3ccc(OC4CCN(c5ccc(C(F)(F)F)cc5)CC4)cc3s2)CC1 [Compound 1-146, N-(1-(2-cyanobenzyl)piperidin-4-yl)-6-(1-(4-(trifluoromethyl)phenyl)piperidin-4-yloxy)benzo [b]thiophene-2-carboxamide]	6.30 to 7.00
CC(C)(C)OC(=O)N1CCC(NC(=O)c2sc3cc(OC4CCN(c5ccc(C(F)(F)F)cc5)CC4)ccc3c2Cl)CC1 [Compound 1-147, tert-butyl 4-(3-chloro-6-(1-(4-(trifluoromethyl)phenyl)piperidin-4-yloxy)benzo [b]thiophene-2-carboxamido) piperidine-1-carboxylate]	5.30 to 6.00
